From ChEMBL document CHEMBL1909046, “DrugMatrix in vitro pharmacology data” come the findings set out here.

As usually defined, the IC50 is the point on the concentration scale where inhibition reaches its midpoint. As usually defined, the Ki is the dissociation constant of the complex between target and ligand, obtained from inhibition or displacement.

For experiment [1], the target named is 5-hydroxytryptamine receptor 1B (Rattus norvegicus, UniProt P28564). The class given is cell membranes, Wistar, Cerebral cortex, Membrane. Further: in other assays of this panel Not Active means under 50% inhibition at 10 µM.
For experiment [2], the target named is Mitogen-activated protein kinase 14 (Homo sapiens, UniProt Q16539). Further details: species or system Escherichia coli.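 Further: inhibition of p38alpha enzyme activity in a biochemical kinase assay, with myelin basic protein serving as substrate; in other assays of this panel Not Active means under 50% inhibition at 10 µM.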
The target of a further experiment is T1, Glucocorticoid receptor (Homo sapiens, UniProt P04150). Further: in other assays of this panel Not Active means under 50% inhibition at 10 µM.
T1 sequence (P04150 whole entry): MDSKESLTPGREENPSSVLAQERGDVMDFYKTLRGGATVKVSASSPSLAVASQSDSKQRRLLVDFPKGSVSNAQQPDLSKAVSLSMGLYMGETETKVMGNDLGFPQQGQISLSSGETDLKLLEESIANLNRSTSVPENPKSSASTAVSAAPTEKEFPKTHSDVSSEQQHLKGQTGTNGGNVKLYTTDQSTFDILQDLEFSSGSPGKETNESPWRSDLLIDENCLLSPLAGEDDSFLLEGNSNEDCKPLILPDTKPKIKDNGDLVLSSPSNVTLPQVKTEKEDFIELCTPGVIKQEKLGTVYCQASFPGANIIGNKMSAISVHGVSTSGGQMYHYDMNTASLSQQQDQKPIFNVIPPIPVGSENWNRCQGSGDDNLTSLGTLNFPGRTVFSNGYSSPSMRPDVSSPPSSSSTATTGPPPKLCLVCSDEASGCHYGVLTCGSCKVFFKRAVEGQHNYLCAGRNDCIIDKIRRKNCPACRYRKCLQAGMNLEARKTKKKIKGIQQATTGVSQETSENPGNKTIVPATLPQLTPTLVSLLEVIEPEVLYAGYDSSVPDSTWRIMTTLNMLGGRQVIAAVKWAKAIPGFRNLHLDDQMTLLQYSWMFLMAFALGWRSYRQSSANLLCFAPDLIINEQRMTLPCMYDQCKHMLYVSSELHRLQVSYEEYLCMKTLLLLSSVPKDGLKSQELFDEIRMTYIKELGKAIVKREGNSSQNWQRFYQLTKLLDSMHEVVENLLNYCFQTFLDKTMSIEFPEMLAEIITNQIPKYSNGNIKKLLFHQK
The conditions noted are these: hela s3.

Experiment [3] deals with 5-hydroxytryptamine receptor 2B (Homo sapiens, UniProt P41595). The class given is cell membranes, CHO-K1, Membrane.
A short description of experiment [4]: DRUGMATRIX: Glutamate, NMDA, Agonism radioligand binding (ligand: [3H] CGP-39653). It counts as cell membranes, Rattus norvegicus, Wistar, Cerebral cortex, Membrane. The conditions noted are these: Not Active = under 50% inhibition at 10 µM.
In another experiment the target is T2, Substance-K receptor (Homo sapiens, UniProt P21452). Further: in other assays of this panel Not Active means under 50% inhibition at 10 µM.
T2 sequence (P21452 whole entry): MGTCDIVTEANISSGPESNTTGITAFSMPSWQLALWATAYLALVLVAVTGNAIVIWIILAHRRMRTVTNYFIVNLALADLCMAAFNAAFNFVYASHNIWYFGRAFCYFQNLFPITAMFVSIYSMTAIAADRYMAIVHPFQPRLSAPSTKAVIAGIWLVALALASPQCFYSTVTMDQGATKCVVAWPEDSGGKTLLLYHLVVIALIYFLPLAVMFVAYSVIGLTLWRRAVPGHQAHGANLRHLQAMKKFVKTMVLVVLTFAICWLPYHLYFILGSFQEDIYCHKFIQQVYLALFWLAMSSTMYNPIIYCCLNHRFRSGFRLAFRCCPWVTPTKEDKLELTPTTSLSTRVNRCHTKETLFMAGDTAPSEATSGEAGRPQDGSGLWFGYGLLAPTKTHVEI
The class given is cell membranes, CHO, Membrane. The note with it: cho.

Experiment [5] has as its target T3, Receptor-type tyrosine-protein phosphatase C (Homo sapiens, UniProt P08575).
T3 sequence (P08575 whole entry): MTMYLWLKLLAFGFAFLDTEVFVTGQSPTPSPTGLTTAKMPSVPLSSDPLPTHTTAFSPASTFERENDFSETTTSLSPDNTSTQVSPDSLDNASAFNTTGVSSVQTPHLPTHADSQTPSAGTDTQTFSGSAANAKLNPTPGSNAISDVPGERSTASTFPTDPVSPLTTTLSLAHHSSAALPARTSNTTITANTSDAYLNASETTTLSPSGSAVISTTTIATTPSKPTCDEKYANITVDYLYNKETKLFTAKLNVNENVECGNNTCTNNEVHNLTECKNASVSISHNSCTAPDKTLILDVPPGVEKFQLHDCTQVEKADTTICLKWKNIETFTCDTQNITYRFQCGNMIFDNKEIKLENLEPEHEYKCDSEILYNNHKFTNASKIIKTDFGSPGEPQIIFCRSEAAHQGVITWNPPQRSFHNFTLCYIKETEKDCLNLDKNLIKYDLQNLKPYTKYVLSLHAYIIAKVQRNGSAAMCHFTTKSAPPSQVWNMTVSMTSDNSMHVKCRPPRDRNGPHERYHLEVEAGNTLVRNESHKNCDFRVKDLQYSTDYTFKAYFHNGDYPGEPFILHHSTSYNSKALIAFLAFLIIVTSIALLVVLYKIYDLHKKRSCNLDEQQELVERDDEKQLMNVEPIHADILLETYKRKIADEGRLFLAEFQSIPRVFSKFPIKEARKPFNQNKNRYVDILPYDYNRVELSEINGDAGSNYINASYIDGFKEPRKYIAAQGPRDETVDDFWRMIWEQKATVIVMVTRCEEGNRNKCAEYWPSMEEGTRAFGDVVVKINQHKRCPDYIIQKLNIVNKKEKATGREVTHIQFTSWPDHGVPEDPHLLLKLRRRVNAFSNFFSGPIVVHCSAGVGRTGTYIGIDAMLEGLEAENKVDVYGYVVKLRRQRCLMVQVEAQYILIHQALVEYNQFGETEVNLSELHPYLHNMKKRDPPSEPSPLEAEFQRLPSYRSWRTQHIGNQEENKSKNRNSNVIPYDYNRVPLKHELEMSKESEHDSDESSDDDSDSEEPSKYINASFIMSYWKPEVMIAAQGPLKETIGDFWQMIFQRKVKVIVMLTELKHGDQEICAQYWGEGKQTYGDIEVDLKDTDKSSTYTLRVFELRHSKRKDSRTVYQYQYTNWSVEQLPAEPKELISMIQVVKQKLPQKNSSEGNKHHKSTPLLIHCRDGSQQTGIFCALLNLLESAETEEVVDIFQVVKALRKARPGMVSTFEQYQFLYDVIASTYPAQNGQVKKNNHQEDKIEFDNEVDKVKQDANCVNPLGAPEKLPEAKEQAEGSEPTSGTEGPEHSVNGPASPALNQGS
Further details: species or system Escherichia coli.

Chain of 5-hydroxytryptamine receptor 1B (P28564 whole entry): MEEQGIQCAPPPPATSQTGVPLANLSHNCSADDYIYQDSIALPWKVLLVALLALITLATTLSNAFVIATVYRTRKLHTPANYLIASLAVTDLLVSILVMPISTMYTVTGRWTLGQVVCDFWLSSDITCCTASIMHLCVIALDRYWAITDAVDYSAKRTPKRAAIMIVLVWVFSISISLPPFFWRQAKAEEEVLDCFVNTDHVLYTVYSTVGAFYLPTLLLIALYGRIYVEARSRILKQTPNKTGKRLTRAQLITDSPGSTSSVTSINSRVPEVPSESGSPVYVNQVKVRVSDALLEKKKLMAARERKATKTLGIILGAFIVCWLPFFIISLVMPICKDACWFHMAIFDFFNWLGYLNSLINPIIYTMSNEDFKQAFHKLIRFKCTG
Chain of Mitogen-activated protein kinase 14 (Q16539 whole entry): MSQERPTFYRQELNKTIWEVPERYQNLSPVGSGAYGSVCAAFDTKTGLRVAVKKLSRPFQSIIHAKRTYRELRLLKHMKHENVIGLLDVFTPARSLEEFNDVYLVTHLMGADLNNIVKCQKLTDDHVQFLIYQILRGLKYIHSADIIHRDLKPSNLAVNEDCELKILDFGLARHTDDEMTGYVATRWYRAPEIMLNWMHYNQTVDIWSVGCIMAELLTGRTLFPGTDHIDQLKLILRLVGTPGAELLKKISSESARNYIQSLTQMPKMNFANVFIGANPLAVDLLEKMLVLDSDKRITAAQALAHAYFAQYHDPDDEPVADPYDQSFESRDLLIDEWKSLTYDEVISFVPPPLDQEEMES
Chain of 5-hydroxytryptamine receptor 2B (P41595 whole entry): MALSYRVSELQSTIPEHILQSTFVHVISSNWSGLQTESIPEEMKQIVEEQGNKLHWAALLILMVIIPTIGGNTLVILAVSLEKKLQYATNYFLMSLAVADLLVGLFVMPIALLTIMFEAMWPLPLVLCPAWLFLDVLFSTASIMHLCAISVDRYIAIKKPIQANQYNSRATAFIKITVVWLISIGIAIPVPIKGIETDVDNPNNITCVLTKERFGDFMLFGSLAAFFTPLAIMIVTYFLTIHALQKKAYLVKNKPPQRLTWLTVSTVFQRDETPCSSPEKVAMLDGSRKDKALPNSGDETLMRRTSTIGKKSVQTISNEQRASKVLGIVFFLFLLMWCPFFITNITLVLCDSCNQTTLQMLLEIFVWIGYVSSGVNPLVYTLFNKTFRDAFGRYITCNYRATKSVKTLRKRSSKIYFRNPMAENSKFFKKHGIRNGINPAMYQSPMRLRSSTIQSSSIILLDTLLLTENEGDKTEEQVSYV

In the case of `Nc1nc2nc[nH]c2c(=S)[nH]1` [THIOGUANINE], the IC50 result (in experiment [1]; in experiment [2]; on Glucocorticoid receptor; in experiment [3] (cho-k1); in experiment [4]; on Substance-K receptor) was “Not Active” in each case. Besides, the IC50 result in experiment [5] is “Not Active”. In addition, the Ki entry in experiment [4] is given as “Not Active”.

With `Cc1cccc(N(C)C(=S)Oc2ccc3ccccc3c2)c1` [TOLNAFTATE], the IC50 entry in experiment [1] was “Not Active”; in experiment [2], “Not Active”; against Glucocorticoid receptor, “Not Active”; in experiment [3] (read-out: IC50), 2.01 µM; in experiment [4], “Not Active”; on Substance-K receptor, “Not Active”. In experiment [5], the IC50 result is reported as “Not Active”. For the same compound, the inhibition constant Ki in experiment [3] (read-out: Ki) was 1.28 µM; in experiment [4] it was “Not Active”.

Consider `N[C@@H]1[C@H]2CN(c3nc4c(cc3F)c(=O)c(C(=O)O)cn4-c3ccc(F)cc3F)C[C@@H]12` [TROVAFLOXACIN], for which the IC50 result (in experiment [1]; in experiment [2]; against Glucocorticoid receptor; in experiment [3] (cho-k1); in experiment [4]; against Substance-K receptor) was “Not Active” each time. In experiment [5], the IC50 entry was “Not Active”. Further, in experiment [4], the Ki entry is on record as “Not Active”.

For `CC[C@]1(O)C[C@H]2CN(CCc3c([nH]c4ccccc34)[C@@](C(=O)OC)(c3cc4c(cc3OC)N(C=O)[C@H]3[C@@](O)(C(=O)OC)[C@H](OC(C)=O)[C@]5(CC)C=CCN6CC[C@]43[C@@H]65)C2)C1` [VINCRISTINE], the IC50 entry (in experiment [1]; in experiment [2]; against Glucocorticoid receptor; in experiment [3] (cho-k1); in experiment [4]; at Substance-K receptor) was “Not Active” throughout. In experiment [5], the IC50 entry is “Not Active”. Moreover, the Ki result in experiment [4] is given as “Not Active”.

For `CCCOc1ccccc1-c1nc2nn[nH]c2c(=O)[nH]1` [ZAPRINAST], the IC50 result (in experiment [1]; in experiment [2]; against Glucocorticoid receptor; in experiment [3] (cho-k1); in experiment [4]; on Substance-K receptor) was “Not Active” throughout. Further, the IC50 result in experiment [5] is given as “Not Active”. Further, the Ki entry in experiment [4] was “Not Active”.

For the compound SODIUM NITROPRUSSIDE, the IC50 result (in experiment [1]; in experiment [2]; against Glucocorticoid receptor; in experiment [3] (cho-k1); in experiment [4]; against Substance-K receptor) was “Not Active” in each case. In addition, the IC50 entry in experiment [5] is given as “Not Active”. The Ki entry (in experiment [1]; in experiment [2]; at Glucocorticoid receptor; in experiment [3] (cho-k1); in experiment [4]; on Substance-K receptor) was “Not Active” each time. Moreover, the Ki result in experiment [5] was “Not Active”.
